From patent US10464977B2 (University of Maryland, Baltimore, priority 2016, dated 2019)
Residues, ends and D or L forms follow the SMILES beside them. No end group written: not given here.

Legend:
Sap2 [1] = test: 6.25 μg mL^−1 Sap2 in 1 mM NaPB; details: C. albicans, 37° C., up to 2 h
Sap9 [2] = test: 3.13 μg mL^−1 Sap9 in 1 mM NaPB; details: C. albicans, 37° C., up to 2 h
Sap2 [3] = test: 18 μg mL^−1 Sap2 in 1 mM sodium phosphate buffer (NaPB); details: C. albicans, 37° C., up to 2 h
Sap2 [4] = target: T1, Sap2 (Candida albicans, UniProt P0DJ06); test: in vitro; details: 2 h, 37° C.; for degradation by Sap2 (in words): 6.25 μg mL^−1 Sap2, 150 μg mL^−1 peptide; for intact peptide remaining after incubation with higher Sap2 concentration: 18 μg mL^−1 Sap2, 150 μg mL^−1 peptide
T1 sequence (P0DJ06 57-398): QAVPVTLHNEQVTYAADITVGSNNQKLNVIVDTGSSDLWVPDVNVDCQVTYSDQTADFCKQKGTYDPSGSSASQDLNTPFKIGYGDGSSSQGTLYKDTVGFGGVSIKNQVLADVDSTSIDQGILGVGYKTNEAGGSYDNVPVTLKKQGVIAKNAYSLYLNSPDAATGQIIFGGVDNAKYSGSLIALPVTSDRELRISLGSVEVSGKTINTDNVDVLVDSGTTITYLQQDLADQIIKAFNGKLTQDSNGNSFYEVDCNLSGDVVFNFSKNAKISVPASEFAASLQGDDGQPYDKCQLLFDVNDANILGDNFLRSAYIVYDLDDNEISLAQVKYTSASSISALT
Experimental: (§1) Experiments were done in 1 mM NaPB. The mixtures were incubated at 37° C. for 2 h, and NaPB with no Sap was used as a control. After the incubation, the samples were mixed with tricine sample buffer (without Coomassie Blue G-250, except in control samples) containing β-mercaptoethanol and boiled for 5 min at 100° C. to inactivate the proteases. The degraded and non-degraded peptides were separated by gel electrophoresis in 10-20% Tris-tricine gels (Bio-Rad), and the gels were then fixed in a 10% acetic acid/40% methanol/50% water mixture for 30 min. The fixed gels were stained with Bio-Safe Coomassie stain (Bio-Rad) for 1 h and washed with fresh water three times, once overnight and then twice for at least 2 h each time. The gels were imaged on a Chemidoc imager (Bio-Rad), and densitometric analysis was done with Image Lab software (Bio-Rad). […] Three replicates of the assay were done.
(§2) To measure the antifungal activity of the peptides following degradation by the Saps, the antifungal activity assay was performed as described above, except the peptides were first exposed to Saps. The peptide fragments were prepared by incubating each peptide (150 μg mL^−1) with 6.25 μg mL^−1 Sap9 or 18 μg mL^−1 Sap2 for 2 h at 37° C. The enzymes were then inactivated by heating at 100° C. for 5 min. As controls, each peptide was also incubated with only NaPB buffer. Samples were then stored at −20° C. until use in the antifungal activity assay.
(§3) The intact peptide was then separated from the degradation products using gel electrophoresis and quantified the level of degradation using densitometric analysis of Coomassie-stained gels.
(§4) To amplify differences in antifungal activity due to degradation by the Saps, the concentrations of the Saps was increased by at least two-fold compared to the concentrations used for the gel electrophoresis data in FIGS. 1A-1D (to 6.25 μg mL^−1 for Sap9 and 18 μg mL^−1 for Sap2).

Sap9 [5] = target: T2, Sap9 (Candida albicans, UniProt Q59SU1); test: in vitro; details: Candida albicans, isolated enzyme
T2 sequence (Q59SU1 18-520): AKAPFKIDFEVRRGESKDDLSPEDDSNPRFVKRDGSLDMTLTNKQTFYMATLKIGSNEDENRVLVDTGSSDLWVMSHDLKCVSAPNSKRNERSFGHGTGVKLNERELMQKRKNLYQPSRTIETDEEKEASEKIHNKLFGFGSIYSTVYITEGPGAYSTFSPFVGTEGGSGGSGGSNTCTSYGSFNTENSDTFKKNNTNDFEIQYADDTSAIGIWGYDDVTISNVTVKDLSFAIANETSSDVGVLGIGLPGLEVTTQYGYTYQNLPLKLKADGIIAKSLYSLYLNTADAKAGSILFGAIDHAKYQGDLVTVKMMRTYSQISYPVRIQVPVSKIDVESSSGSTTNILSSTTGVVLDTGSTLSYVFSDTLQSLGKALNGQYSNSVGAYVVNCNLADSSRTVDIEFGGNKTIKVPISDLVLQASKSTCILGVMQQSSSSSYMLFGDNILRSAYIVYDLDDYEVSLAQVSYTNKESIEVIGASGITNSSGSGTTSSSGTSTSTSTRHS
Experimental: as §1, §2, §3, §4

Sap2 [6] = target: T1, Sap2; details: 6.25 μg mL^−1 Sap2
Experimental: (§5) The cleavage sites of the Saps and the abundance of the fragments produced by cleavage were determined using mass spectrometry. […] The binding solution was 0.1% formic acid, and the releasing solution was 0.1% formic acid/60% acetonitrile (ACN). To ensure equal flow-through volume of each sample, 18 μL of desalted sample was aliquoted and 1 μL of the four-amino acid peptide MRFA at 0.1 mg mL^−1 was added. Samples were manually loaded through loop injection at 25 μL min^−1 with 40% ACN/0.1% formic acid. Mass spectra were acquired with a Thermo Scientific Orbitrap Fusion Lumos Tribrid mass spectrometer with data-dependent analysis at a 5 s cycle time. Manufacturer recommended source parameters for a flow rate of 25 μL min^−1 were applied. Full scan mass spectra of m z^−1 350-1550 were acquired in the orbitrap at R=120000 (m z^−1 200) with fluoranthene ion as the internal calibrant. CID and ETD fragments of the most intense ions (z>1) were recorded with the orbitrap at R=60000 (m z^−1 200). Dynamic exclusion was set at 30 s.
(§6) The molecular weights of the peptides and their fragments were calculated from full scan MS spectra using the XTract program in the XCalibur software (Thermo Scientific). MS/MS spectra from ETD and CID fragmentation were processed using Proteome Discoverer (V2.1) with Prosight PD node to identify peptides and their degradation products. […] Intensities of identified peptides and their degradation products relative to the internal standard MRFA were obtained from the deconvoluted full scan mass spectra.
(§7) After incubation of the peptides with each Sap, the four-amino-acid peptide MRFA was added as an internal standard, and samples were directly injected into the mass spectrometer.

Sap9 [7] = target: T2, Sap9; details: 3.13 μg mL^−1 Sap9
Experimental: as §5, §6, §7

| Compound | not cleaved (Sap2 [1]) | not cleaved (Sap9 [2]) | cleaved bond (Sap2 [1]) | not cleaved (Sap2 [3]) | degradation by Sap2 (in words) (Sap2 [4]) | intact peptide remaining after incubation with higher Sap2 concentration (Sap2 [4]) | remaining at 2 h, 150 μg mL^−1 (Sap9 [5]) [%] | cleavage at the C-terminal side of K17 by Sap2 (mass spectrometry) (Sap2 [6]) | cleavage on the C-terminal side of K17 by Sap9 (mass spectrometry) (Sap9 [7]) | mass spectrometry signal of intact peptide versus fragments, Sap9 (Sap9 [7]) |
| --- | --- | --- | --- | --- | --- | --- | --- | --- | --- | --- |
| DSHAKRHHGYRRKFHERHHSHRGY | no observable degradation | no observable degradation | – | – | – | – | – | – | – | – |
| DSHAKRHHGYKRKFHERHHSHRGY | – | – | R17-H18 | over 90% remaining | – | – | – | – | – | – |
| CC(C)C[C@H](NC(=O)[C@H](CCC(=O)O)NC(=O)[C@H](Cc1c[nH]cn1)NC(=O)[C@H](Cc1ccccc1)NC(=O)[C@H](CCCCN)NC(=O)[C@H](CCCNC(=N)N)NC(=O)[C@H](CCCCN)NC(=O)[C@H](Cc1ccc(O)cc1)NC(=O)CNC(=O)[C@H](Cc1c[nH]cn1)NC(=O)[C@H](Cc1c[nH]cn1)NC(=O)[C@H](CCCNC(=N)N)NC(=O)[C@H](CCCCN)NC(=O)[C@H](C)NC(=O)[C@H](Cc1c[nH]cn1)NC(=O)[C@H](CO)NC(=O)[C@@H](N)CC(=O)O)C(=O)N[C@@H](Cc1c[nH]cn1)C(=O)N[C@@H](Cc1c[nH]cn1)C(=O)N[C@@H](CO)C(=O)N[C@@H](Cc1c[nH]cn1)C(=O)N[C@@H](CCCNC(=N)N)C(=O)NCC(=O)N[C@@H](Cc1ccc(O)cc1)C(=O)O [Peptide K17L] (H-DSHAKRHHGYKRKFHELHHSHRGY-OH; N-terminus and C-terminus assumed) | – | – | – | – | No detectable degradation | over 70% | 77 | still cleaved | neither K17R nor K17L showed significant cleavage at this site | the most intense signal came from the intact peptide |
| C[C@H](NC(=O)[C@H](Cc1c[nH]cn1)NC(=O)[C@H](CO)NC(=O)[C@@H](N)CC(=O)O)C(=O)N[C@@H](CCCCN)C(=O)N[C@@H](CCCNC(=N)N)C(=O)N[C@@H](Cc1c[nH]cn1)C(=O)N[C@@H](Cc1c[nH]cn1)C(=O)NCC(=O)N[C@@H](Cc1ccc(O)cc1)C(=O)N[C@@H](CCCCN)C(=O)N[C@@H](CCCNC(=N)N)C(=O)N[C@@H](CCCCN)C(=O)N[C@@H](Cc1ccccc1)C(=O)N[C@@H](Cc1c[nH]cn1)C(=O)N[C@@H](CCC(=O)O)C(=O)N[C@@H](CCCNC(=N)N)C(=O)N[C@@H](Cc1c[nH]cn1)C(=O)N[C@@H](Cc1c[nH]cn1)C(=O)N[C@@H](CO)C(=O)N[C@@H](Cc1c[nH]cn1)C(=O)N[C@@H](CCCNC(=N)N)C(=O)NCC(=O)N[C@@H](Cc1ccc(O)cc1)C(=O)O [Peptide K17R] (H-DSHAKRHHGYKRKFHERHHSHRGY-OH; N-terminus and C-terminus assumed) | – | – | – | – | No detectable degradation | over 90% | 82 | still cleaved | neither K17R nor K17L showed significant cleavage at this site | the most intense signal came from the intact peptide |
